This is an account of results in article PMC10223347, “Acute Toxicity and Pharmacokinetic Profile of an EU-GMP-Certified Cannabis sativa L. in Rodents” (Pharmaceuticals, 2023).

Data set [1] is described as follows: Pharmacokinetic profile: cannabinoids in rat serum by LC-MS/MS, non-compartmental analysis. To be noted: for Tmax / AUC Inf / AUC Last / Cl / Cmax / T1/2 / Vd: rat serum; for amount identified and quantitated in serum samples: rats given doses of 5, 50, 300 and 600 mg/kg, LC-MS. As to the method:
The pharmacokinetic profile of the EU-GMP-certified Cannabis sativa L. with 15.6% THC and <1% CBD was assessed using 4 dose levels, 5, 50, 300, and 600 mg/kg. Dose levels were chosen in accordance with OECD 417 guidelines being lower than 1000 mg/kg but still high enough to allow for the identification and measurement of natural cannabinoids in the serum. Each dose level group consisted of 6 female Sprague-Dawley rats (8–12 weeks, 200–300 g) housed, cared and treated in the same conditions as the animals involved in the acute toxicity study. After gavage delivery of the compound, blood samples were collected, through a cardiac puncture, at 15 min, 30 min, 1 h, 2 h, 3 h, 4 h, 8 h, 12 h, 24 h, 48 h, and 72 h, respectively. The collected blood samples were then allowed to clot for 30 min at room temperature and centrifuged at 2000× g for 15 min at 4 °C. The separated serum samples were transferred immediately in microcentrifuge tubes and stored at −20 °C until THC and THCA quantification using LC-MS analysis were performed.
A method for simultaneous extraction and LC-MS/MS quantitation of 11 cannabinoids was developed and validated for the present study. Cannabinoid extraction from rat serum was performed according to the method described by Wakshlag et al., with modifications. Rat serum (40 μL) was mixed with 10 μL water: methanol (1:1) and 10 μL internal standard (200 ng/mL of CBD-d3) diluted in water: methanol (1:1). Proteins were precipitated by adding 80 μL ice-cold acetonitrile to each sample followed by vortex 2 min at 6 °C, 1000 rpm and centrifugation at 4000 rpm for 10 min at 4 °C. The supernatant (100 μL) was mixed with ultrapure water (100 μL) in another 1.5 mL microcentrifuge tube and centrifuged again at 4000 rpm for 10 min at 4 °C. The supernatant (100 μL) was transferred to another 1.5 mL microcentrifuge tube and placed in ice until LCMS analysis. Ten μL of the sample were injected into a Phenomenex Kinetex C18 (100 × 4.6 mm, 2.6 μm, 100 Å) HPLC separation column connected in the column compartment of an Agilent 1200 HPLC coupled to an Agilent 6410 electrospray-triple quadrupole mass spectrometer. A 10:1 post-column splitter was used. The column was equilibrated with mobile phase A (0.1% formic acid in water) and mobile phase B (0.1% formic acid in acetonitrile) at 50% B for 1 min. A linear gradient from 50% B to 90% B for 3 min was used and was held constant at 90% B for 6 min, then decreased to 50% B in 1 min and maintained at 50% B for 5 min. The flow rate was […], and the column temperature was 24 °C.
The mass spectrometer was operated in positive mode. The source parameters were a capillary voltage of 4000 V, a gas of temperature 325 °C, a gas flow of 8 L/min, and a nebulizer of 35 psi. The parameters of the mass spectrometer for each time and scan segment and the retention time for each compound are presented in Table 3.
The qualitative analysis of the chromatograms and mass spectra was performed by Agilent MassHunter Workstation Software Qualitative Analysis v.B.01.02 and the quantitative analysis by Agilent MassHunter Workstation Software Quantitative Analysis v.B.01.03. Linear calibration curves were obtained for all 11 cannabinoids using the relative response (peak area of each cannabinoid/peak area of internal standard) and the relative concentration (concentration of each cannabinoid/concentration of internal standard). A linear 7-point calibration curve with 1/×2 weighing and a concentration range of 5–1000 ng/mL in rat serum was employed for the quantitation of the serum samples collected in the present study. The analysis of carryover was performed by LC/MS analysis of a blank sample extracted from normal rat serum after LC/MS analysis of a sample extracted from rat serum fortified with 1000 ng/mL natural cannabinoids.

For the next data set, the system named is Scn1A mice. Also noted: method as in PMID 34384142. To be noted: cited from earlier work.
Data set [2] deals with seizure models with electric shocks. On the set-up: method as in PMID 34384142. To be noted: doses of 10 and 30 mg/kg; cited from earlier work.
The subject of data set [3] is CB2. Also noted: method as in PMID 28861508. To be noted: relative to THC; cited from earlier work.
Data set [4] deals with CB1. On the set-up: method as in PMID 28861508. To be noted: relative to THC; cited from earlier work.
The subject of data set [5] is CB2. On the set-up: method as in PMID 28861508. To be noted: cited from earlier work.
Data set [6] has as its system CB1. On the set-up: method as in PMID 28861508. To be noted: suggests a weak agonist activity; cited from earlier work.
[7] abbreviates: oral 5 mg/kg Cannabixir Medium Flos (0.78 mg Δ9-THCA-A + Δ9-THC).
Where [8] appears, read: oral 50 mg/kg Cannabixir Medium Flos (7.8 mg Δ9-THCA-A + Δ9-THC).
The mark [9] stands for this setting: oral 300 mg/kg Cannabixir Medium Flos (46.8 mg Δ9-THCA-A + Δ9-THC).
Setting [10] is: oral 600 mg/kg Cannabixir Medium Flos (93.6 mg Δ9-THCA-A + Δ9-THC).

As to `CCCCCc1cc(O)c2c(c1)OC(C)(C)[C@@H]1CCC(C)=C[C@@H]21` [Δ9-THC, Δ9-tetrahydrocannabinol], the Tmax in data set [1] (setting [7]) worked out at 0 h. Besides, the Tmax in data set [1] (setting [8]) came out at 0 h. Also, in data set [1] (setting [9]), the “AUC Inf” value is given as “BQL”, the “AUC Last” value is “BQL”, the Cl entry is “BQL” and the Cmax entry was “BQL”. Further, in data set [1] (setting [9]), the T1/2 entry is “BQL”, the Tmax entry was “BQL” and the Vd result was “BQL”. For the same compound, in data set [1] (setting [10]), the “AUC Inf” value turned out to be 287.2334 ng·h/mL, the “AUC Last” value is 284.342 ng·h/mL, the Cl was found to be 5431.12 mL/min/kg and the Cmax was 34.916 ng/mL. Besides, in data set [1] (setting [10]), the T1/2 turned out to be 7.080 h, the Tmax is given as 0.25 h and the Vd was 3328.818 L/kg. Further, the “amount identified and quantitated in serum samples” value (shortened to “amount identified and quantitated”) in data set [1] was “low amounts”.
For `C=C(C)[C@@H]1CCC(C)=C[C@H]1c1c(O)cc(CCCCC)c(C(=O)O)c1O` [CBDA, cannabidiolic acid], in data set [1], the “amount identified and quantitated” value is given as “low amounts”.
For the compound `CCCCCc1cc(O)c(C/C=C(\C)CCC=C(C)C)c(O)c1C(=O)O` [CBGA, cannabigerolic acid], the frequency of convulsions result in the data set with Scn1A mice is “increase frequency of convulsions”. The “effect on seizure models with electric shocks” value in data set [2] is reported as “pro-convulsive”. Also, the “amount identified and quantitated” value in data set [1] is on record as “high amounts”.
For the compound `CCCc1cc2c(c(O)c1C(=O)O)C=CC(C)(CCC=C(C)C)O2` (stereo not drawn) [CBCVA, cannabichromevarinic acid], the frequency of convulsions result in the data set on Scn1A mice is on record as “increase frequency of convulsions”.
`CCCCCc1cc(O)c(C/C=C(\C)CCC=C(C)C)c(O)c1` [CBG, Cannabigerol]: the frequency of convulsions result in the data set with Scn1A mice is recorded as “increase frequency of convulsions”.
Turning to `CCCCCc1cc2c(c(O)c1C(=O)O)C1C=C(C)CCC1C(C)(C)O2` (stereo not drawn) [Δ9-THCA-A, Δ9-tetrahydrocannabinolic acid], the “binding for CB2, times smaller than THC” value with CB2 [3] is recorded as at least 125 times. Further, in data set [1] (setting [7]), the “AUC Inf” value worked out at 260.802 ng·h/mL, the “AUC Last” value was 197.236 ng·h/mL, the Cmax worked out at 42.425 ng/mL and the T1/2 was found to be 5.3374 h. Besides, in data set [1] (setting [7]), the Tmax was determined as 3 h and the Vd was determined as 23.0298 L/kg. For the same compound, in data set [1] (setting [8]), the “AUC Inf” value was 3172.8488 ng·h/mL, the “AUC Last” value was 3163.1937 ng·h/mL, the Cl is 40.972 mL/min/kg and the Cmax was determined as 404.16 ng/mL. Also, in data set [1] (setting [8]), the T1/2 is listed as 5.4189 h, the Tmax amounted to 3 h and the Vd came out at 19.2193 L/kg. Moreover, in data set [1] (setting [9]), the “AUC Inf” value is recorded as 13,544.792 h*ng/mL, the “AUC Last” value is reported as 13,323.57 h*ng/mL, the Cl was 57.587 mL/min/kg and the Cmax is listed as 2787.617 ng/mL. Moreover, in data set [1] (setting [9]), the T1/2 was found to be 10.291 h, the Tmax is 0.5 h and the Vd is listed as 51.298 L/kg. In data set [1] (setting [10]), the “AUC Inf” value is listed as 43,261.689 h*ng/mL, the “AUC Last” value is listed as 40,371.48 h*ng/mL, the Cl was 36.058 mL/min/kg and the Cmax is reported as 10,563.4 ng/mL. For the same compound, in data set [1] (setting [10]), the T1/2 was 10.988 h, the Tmax turned out to be 0.25 h and the Vd came out at 34.298 L/kg. Besides, the “amount identified and quantitated” value in data set [1] was “high amounts”. Moreover, in the data set on CB1 [4], the “binding for CB1, times smaller than that of THC” value is listed as “at least 62 times”. Moreover, the “efficacy for CB2” value in the data set on CB2 [5] is “no efficacy”. For the same compound, the “efficacy at CB1 (AMPc)” value with CB1 [6] was “slightly inhibited AMPc”.
Turning to `CCCCCc1cc2c(c(O)c1C(=O)O)C=CC(C)(CCC=C(C)C)O2` (stereo not drawn) [CBCA, cannabichromenic acid], the “amount identified and quantitated” value in data set [1] is “low amounts”.
Consider `C=C(C)[C@@H]1CCC(C)=C[C@H]1c1c(O)cc(CCC)c(C(=O)O)c1O` [CBDVA, cannabidivarinic acid], for which, in the data set with Scn1A mice, the frequency of convulsions entry is “increase frequency of convulsions”.
